Converted amounts (≈) assume the structure as drawn. Where two headings read alike, the source gives them in different places.
Experiments:
[1] = test system: fluconazole-susceptible C. albicans strain 90028; conditions: cited from earlier work
[2] = test system: fluconazole-resistant C. albicans strain Gu5; conditions: cited from earlier work
C. albicans CaCi-2 = assay: Secondary single-agent (no-fluconazole) activity assay; format: cell-based, Candida albicans; conditions: Candida albicans, CACI2; in the absence of fluconazole; read-out: Target Potency (μM) Mean ± S.E.M CaCi-2^b IC50
In short: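 C. albicans CaCi-2 in RPMI synthetic defined medium with 1% Pen/Strep, starting OD600 0.00015, exposed to compound alone (no fluconazole) for 48 h at 37 °C without agitation. Growth read as Alamar Blue fluorescence (1:200 final) after 2 h at room temperature.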

C. albicans CaCi-8 = assay: microbe, parasite or virus in culture; format: cell-based, Candida albicans
In short: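 Hits tested for chemosensitization of the fluconazole-resistant CaCi-8 strain, for inherent antifungal activity without fluconazole, and for mammalian fibroblast toxicity by fluorescence reporter. Geldanamycin plus fluconazole served as positive control; a Saccharomyces assay assigned mechanism to Hsp90, calcineurin or other pathways.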

[3] = test system: NIH-3T3 mammalian fibroblasts; assay: Counterscreen mammalian cell toxicity assay (fibroblast toxicity); format: cell-based, murine; conditions: for IC50: footnote: in the absence of fluconazole, read-out: Anti-target Potency (μM) Mean ± S.E.M Fibroblasts^b IC50
PBS solubility = conditions: for solubility: aqueous buffer
Plasma stability = conditions: % remaining in human plasma after a 5-hour incubation
Plasma protein binding = conditions: for fraction unbound: human, plasma
[4] = test system: Saccharomyces cerevisiae strain W303-1a; assay: In vivo inhibition of fungal respiration (growth on glycerol); format: cell-based; conditions: glycerol medium, 48 hours
Method: Saccharomyces cerevisiae (S. cerevisiae) strain W303-1a was grown overnight in Yeast-Peptone-Dextrose media, washed, and diluted into Yeast Nitrogen Base media with 2.5% glycerol containing compounds at a range of dilutions.

Aspergillus terreus = Aspergillus terreus susceptibility test (CLSI M38-A2); format: cell-based
Method: Aspergillus terreus (A. terreus) susceptibility testing was performed as described in Clinical Laboratory Standards Institute document […]-A2 (CLSI […]-A2) (CLSI. Reference Method for Broth Dilution Antifungal Susceptibility Testing of Filamentous Fungi; Approved Standard-Second Edition. CLSI, 940 West Valley Road, Suite 1400, Wayne, Pa. 19087-1898 USA, 2003).

yeast = target: T1, yeast (Saccharomyces cerevisiae, UniProt P00163); assay: IC50 values and selectivity of Table 10A (target yeast, anti-target human cytochrome); format: biochemical; conditions: for IC50: target is yeast; for Selectivity* (anti-target IC50)/(target IC50): target yeast, anti-target human cytochrome
T1 construct: Mitochondrial membranes were prepared from yeast; endogenous in cells; host or cells: yeast (mitochondrial membranes)
Method: (§1) All measurements were performed in triplicate.

[5] = as above; format: biochemical
Method: as §1

[6] = test system: Candida albicans wild-type; assay: De novo emergence of fluconazole resistance (colonies after six days); format: cell-based; conditions: I-97 0.5 μM combined with fluconazole 32 mg/L
Method: Candida albicans wild-type (WT, FIG. 13, top panel) or rip1/rip1 homozygous deletion mutant (rip1 Δ/Δ, FIG. 13, middle panel) were plated on media in the presence of fluconazole (32 mg/L) or in the absence of fluconazole. The emergence of colonies was monitored after six days.

[7] = test system: Candida albicans strain SC5314; assay: Cytotoxicity to fluconazole-sensitive strain SC5314; format: cell-based; conditions: combination with fluconazole
[8] = test system: Candida albicans strain CaCi-2; assay: Cytotoxicity to fluconazole-resistant strain CaCi-2; format: cell-based; conditions: combination with fluconazole
fungus = conditions: cited from earlier work
[9] = read-out: Target Potency (μM) Mean ± S.E.M CaCi-8^a IC50; in the presence of fluconazole

Structure (SMILES)	IC50 (C. albicans CaCi-2) [µM]	IC50 (C. albicans CaCi-8; [9]) [µM]	IC50 ([3]; Mus musculus, NIH3T3) [µM]	solubility (PBS solubility; PBS) [µM]	Plasma Stability (Plasma stability) [%]	fraction unbound (Plasma protein binding)	Selectivity* (anti-target IC50)/(target IC50) (yeast)	IC50 [5] [µM]	also measured
Clc1ccc2c(c1)nnc1nnnn12 [CTBT, 7-chlorotetrazolo[5,1-c]benzo[1,2,4]triazine]	–	–	–	–	–	–	–	–	Activity in the absence of fluconazole [1]: no activity; MIC when combined with fluconazole [1]: 2.4 µM; Concentrations inhibiting growth in the absence of fluconazole [2]: greater than 2.4 μM; MIC when combined with fluconazole [2]: 2.4 µM
O=C(O)c1nn(Cc2ccc(Cl)cc2)c2ccccc12 [Compound 100493]	> 26	> 26	> 6	516 (≈ 148 µg/mL)	> 99	< 0.01	–	–	–
COC(=O)Cn1c(-c2ccccc2)nc2ccccc21 [Compound 4131200]	> 26	> 26	> 6	438 (≈ 117 µg/mL)	46	0.05	–	–	–
COc1ccc(-c2n[nH]c3ccccc23)cc1 [Compound 9855970]	> 26	> 26	> 6	< 1	89	0.02	–	–	–
CCOC(=O)c1nn(Cc2ccc(Cl)cc2)c2ccccc12 [Compound 12312246]	> 26	> 26	> 6	–	93	< 0.01	–	–	solubility (PBS solubility): < 0.1 µM
O=C(O)c1c2ccccc2nn1Cc1ccc(Cl)cc1 [Compound 14420592]	> 26	> 26	> 6	503 (≈ 144 µg/mL)	96	< 0.01	–	–	–
CCCNC(=O)Cn1nc(-c2ccccc2)c2cc(Cl)ccc21 [Compound 20877322]	> 26	> 26	> 6	< 1	97	< 0.01	–	–	–
O=C(Cn1nc(-c2ccccc2)c2cc(Cl)ccc21)N1CCOCC1 [Compound 20877381]	> 26	> 26	> 6	8 (≈ 2.85 µg/mL)	99	0.04	–	–	–
O=C(Cn1nc(C(=O)N2CCCCC2)c2ccccc21)N1CCOCC1 [Compound 46378661]	> 26	> 26	> 6	529 (≈ 189 µg/mL)	> 99	0.48	–	–	–
Cc1nn(S(C)(=O)=O)c2ccccc12 [Compound 46856251]	> 26	> 26	> 6	494 (≈ 104 µg/mL)	> 99	0.37	–	–	–
CCOC(=O)c1c2ccccc2nn1Cc1ccc(Cl)cc1 [Compound 46856252]	> 26	> 26	> 6	< 1	70	< 0.01	–	–	–
FC(F)(F)c1ccc(-c2n[nH]c3ccccc23)cc1 [Compound 49635869]	> 26	> 26	> 6	< 1	79	< 0.01	–	–	–
COC(=O)Cn1nc(I)c2ccccc21 [Compound 49835832]	–	–	–	–	1.3	–	–	–	IC50 (C. albicans CaCi-8; in the presence of fluconazole; read-out: Target Potency (μM) Mean ± S.E.M CaCi-8^a IC50): 18.8 µM; IC50 [3]: 0.53 µM; PBS Solubility (PBS solubility; PBS): 143.5 µM; Plasma Protein Binding (Plasma protein binding; % bound in human plasma): 98%
COC(=O)Cn1nc(-c2ccccc2)c2cccc(C(F)(F)F)c21 [Compound 49835842]	> 26	> 26	> 6	< 1	50	< 0.01	–	–	–
COC(=O)Cn1nc(-c2cccc(OCc3ccccc3)c2)c2ccccc21 [Compound I-7]	–	–	–	–	–	–	–	–	Inhibitory activity against S. cerevisiae (respiratory growth) [4]: shows inhibitory activity; Inhibitory activity against A. terreus (Aspergillus terreus): shows inhibitory activity
COC(=O)Cn1nc(-c2cccc(F)c2)c2ccccc21 [Compound I-71]	> 26	–	12.9	< 1	< 1.0	0.04	80	–	** CaCi-2 to anti-target fold selectivity ([3]; fibroblast IC50 over CaCi-2 IC50 with fluconazole): 9.1; IC50 (yeast): 0.25 µM
c1ccc(-c2nn(Cc3nnco3)c3ccccc23)cc1 [Compound I-74]	–	–	–	–	–	–	53	3	–
CNC(=O)Cn1nc(-c2ccccc2)c2ccccc21 [Compound I-75]	–	–	–	–	–	–	–	> 80	–
COC(=O)Cn1nc(-c2ccsc2)c2ccccc21 [Compound I-77]	–	–	–	–	–	–	48	0.625	–

Structure (SMILES)	IC50 (C. albicans CaCi-2) [µM]	IC50 (C. albicans CaCi-8; [9]) [µM]	IC50 ([3]; Mus musculus, NIH3T3) [µM]	solubility (PBS solubility; PBS) [µM]	Plasma Stability (Plasma stability) [%]	fraction unbound (Plasma protein binding)	Selectivity* (anti-target IC50)/(target IC50) (yeast)	IC50 [5] [µM]	also measured
COC(=O)Cn1nc(-c2cccc(OCCCC3CCCCC3)c2)c2ccccc21 [Compound I-78]	–	–	–	–	–	–	100	0.01	–
COC(=O)Cn1nc(-c2cccc(OCCC(C)(C)C)c2)c2ccccc21 [Compound I-79]	–	–	–	–	–	–	50	0.04	–
COC(=O)Cn1nc(-c2ccccc2)c2cccc(C)c21 [Compound I-82]	–	–	–	–	–	–	40	0.125	–
c1ccc(-c2nn(Cc3nn[nH]n3)c3ccccc23)cc1 [Compound I-87]	–	–	–	–	–	–	–	> 160	–
Cc1cc(Cn2nc(-c3ccccc3)c3ccccc32)on1 [Compound I-92]	–	–	–	–	–	–	>5	30	–
COC(=O)Cn1nc(-c2ccccc2)c2ccccc21 [Compound I-96]	–	–	–	–	–	–	–	0.6	–
COC(=O)Cn1nc(-c2cc(C(F)(F)F)ccc2F)c2cccc(C)c21 [Compound I-97]	–	–	–	–	–	–	200	–	IC50 (yeast): 0.004 µM; Emergence of resistance to fluconazole [6]: prevented the emergence of the resistance to fluconazole; Effect on SC5314 [7]: cytotoxic; Effect on CaCi-2 [8]: cytotoxic
Cc1cccc2c(-c3cc(C(F)(F)F)ccc3F)nn(Cc3nnn(C)n3)c12 [Compound I-99]	–	–	–	–	–	–	160	0.023	–
Cn1nnc(Cn2nc(-c3cc(OCCCC4CCCCC4)ccc3F)c3ccccc32)n1 [Compound I-102]	–	–	–	–	–	–	16	0.046	–
O=C(O)Cn1nc(-c2ccccc2)c2ccccc21 [Compound I-107]	–	–	–	–	–	–	–	> 120	–
Brc1cccnc1Cn1nc(-c2ccccc2)c2ccccc21 [Compound I-113]	–	–	–	–	–	–	–	> 120	–
c1ccc(-c2nn(Cc3cnccn3)c3ccccc23)cc1 [Compound I-115]	–	–	–	–	–	–	128	0.63	–
COC(=O)Cn1nc(-c2cccc(C#N)c2)c2ccccc21 [Compound I-118]	–	–	–	–	–	–	96	1.25	–
COC(=O)Cn1nc(-c2cccc([N+](=O)[O-])c2)c2ccccc21 [Compound I-119]	–	–	–	–	–	–	160	0.5	–
COC(=O)Cn1nc(-c2ccccn2)c2ccccc21 [Compound I-120]	–	–	–	–	–	–	–	15	–
COC(=O)Cn1nc(-c2cccc(OCc3ccccc3)c2F)c2ccccc21 [Compound I-134]	–	–	–	–	–	–	20	0.2	–
COC(=O)Cn1nc(-c2cc(OCc3ccccc3)ccc2F)c2ccccc21 [Compound I-136]	–	–	–	–	–	–	8.3	0.06	–
COC(=O)Cn1nc(-c2cccc(OCc3ccccc3)c2)c2ccccc21 [Compound I-140]	–	–	–	–	–	–	8	0.4	–
CCCCc1oc2ccccc2c1C(=O)c1cc(I)c(OCCN(CC)CC)c(I)c1 [amiodarone]	–	–	–	–	–	–	–	–	MIC50, single-agent antifungal activity (fungus): 3.1 µM (≈ 2 µg/mL)
